These are literature values, as cited in patent US20240108573A1, “NANOLIPID CARRIER BASED FORMULATION FOR BRAIN DELIVERY THROUGH INTRANASAL ROUTE AND ITS PREPARATION PROCESS” (AMRITA SCHOOL OF PHARMACY, AMRITA VISHWA VIDYAPEETHAM, priority 2022, published 2024).

Turning to `O=C1NC(=O)C(c2ccccc2)(c2ccccc2)N1` [phenytoin sodium], the biological half-life is 15-22 hrs.
